Counter-ions that a name gives are not always drawn.

In general, Ki refers to the equilibrium dissociation constant of an inhibitor or competing ligand from its target. Read a low Ki as a stronger hold on the target.

In this experiment the target is T1, activated ROCK II (Rattus norvegicus, UniProt Q62868).
T1 construct: purchased Upstate Biotechnology 14-338
T1 sequence (Q62868 11-550 limits assumed): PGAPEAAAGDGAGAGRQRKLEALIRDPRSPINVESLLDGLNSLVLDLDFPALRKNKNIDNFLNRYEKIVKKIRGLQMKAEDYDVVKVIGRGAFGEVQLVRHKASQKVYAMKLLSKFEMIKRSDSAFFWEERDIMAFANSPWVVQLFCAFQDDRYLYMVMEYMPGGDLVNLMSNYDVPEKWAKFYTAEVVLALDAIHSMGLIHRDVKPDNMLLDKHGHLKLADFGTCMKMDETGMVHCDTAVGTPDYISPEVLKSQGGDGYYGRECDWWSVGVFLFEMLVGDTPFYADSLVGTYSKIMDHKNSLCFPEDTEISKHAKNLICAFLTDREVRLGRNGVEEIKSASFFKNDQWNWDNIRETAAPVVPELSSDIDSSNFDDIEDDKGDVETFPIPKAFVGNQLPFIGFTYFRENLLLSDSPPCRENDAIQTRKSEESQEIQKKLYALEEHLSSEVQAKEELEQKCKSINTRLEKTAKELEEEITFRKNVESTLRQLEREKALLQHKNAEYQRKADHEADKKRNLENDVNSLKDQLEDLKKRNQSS
Description: Test for Evaluation of Inhibiting Activity to Rho Kinase. The class given is biochemical. The note with it: S6 Kinase Substrate Peptide, [γ-32P]ATP, 30° C. for 15 minutes, Ki=IC50/(1+S/Km). Here is the method:
In order to find the utility of the present invention compound, a Rho kinase inhibiting activity of the present invention compound was evaluated. The details thereof will be illustrated under the item of “Pharmacological Test (Test for Evaluation of Rho Kinase Inhibiting Activity)” in the Examples which will be mentioned later. The evaluation of the Rho kinase inhibiting activity of the present invention compound was carried out in accordance with the methods mentioned in J. Biol. Chem., 274, 32418 (1999) by Kaibuchi, et al. and mentioned in the instruction manual for use attached to the commercially available activated ROCK II [Upstate Biotechnology, Catalog No. 14-338 (5 units/50 μl)].
A. Test for Evaluation of Inhibiting Activity to Rho Kinase
In order to test the usefulness of the compounds of the present invention as a Rho kinase inhibitor, inhibiting activities of the compounds of the present invention to Rho kinase were evaluated and investigated in accordance with the methods of Kaibuchi, et al. mentioned in J. Biol. Chem., 274, 32418, 1999 and also with the methods mentioned in the instruction manual for use attached to commercially available activated ROCK II [Upstate Biotechnology, Catalog No. 14-338, (5 unite/50 μl)]. With regard to the test compounds, the compounds 5-1 to 5-73 (except the compounds 5-2, 5-9, 5-18, 5-37 and 5-38) were used.
A buffer was prepared so as to make tris(hydroxymethyl)aminomethane (Tris) (pH 7.5), 50 mM, ethyleneglycol bis(β-aminoethyl ether)-N,N,N′,N′-tetraacetic acid (EGTA), 2 mM, ethylenediaminetetraacetic acid (EDTA), 1 mM, magnesium chloride (MgCl2) 5 mM, β-glycerol phosphate, 5 mM, and dithiothreitol (DTT), 2 mM, by mixing them.
A mixed liquid of a 10 mM ATP solution with a commercially available [γ-^32P]ATP solution [NEN, Code No. NEG-002A] was diluted with the buffer to prepare a 300 μM ATP [γ-^32P]ATP solution.
A Commercially Available Activated ROCK II [Upstate Biotechnology, Catalog No. 14-338, (5 Units/50 μl)] was diluted to a concentration of 1/100 with the buffer to prepare an activated ROCK II solution.
A S6 Kinase Substrate Peptide [Upstate Biotechnology, Catalog No. 12-124,] (2 mg) was dissolved in distilled water to prepare a 1 mM substrate solution.
A test compound was dissolved in 10% aqueous dimethyl sulfoxide solution.
1) The test compound solution is placed in a microtube.
2) The 300 μM ATP [γ-^32P]ATP solution is added to the microtube followed by cooling to 4° C.
3) After that, a permanently activated ROCK II solution, 1 mM substrate solution and buffer are added to each microtube in that order, and the whole is mixed and cooled again at 4° C.
4) The microtube is placed in an incubator (30° C.) and the mixture is subjected to reaction for 15 minutes.
5) After cooling to 4° C., a 250 mM phosphoric acid solution (5 μl) is added to each microtube to stop the reaction.
6) The reaction solution (30 μl) is taken out from each microtube and spotted on a filter paper (Whatman P81) so that the reaction product (phosphorylated substrate) is adsorbed to the filter paper.
7) The filter paper is transferred to a beaker in which a 75 mM phosphoric acid solution is placed and shaken for 5 minutes so that unreacted [γ-^32P]AfP is washed out. The washing operation as such is carried out four times.
8) After that, the filter paper is dipped in ethanol to dehydrate and energy amount (radioactivity) of the reaction product adsorbed to the filter paper is measured with a liquid scintillation counter.
The IC50 value was calculated by an XL-fit (IDBS).
The Ki value is calculated by the following formula. S is an ATP concentration contained in the reaction solution while Km is a Michaelis-Menten constant. Ki=IC50/(1+S/Km)
Turning to `CC(C)(N)c1ccc(-c2ccc3[nH]ncc3c2)cc1` [Compound 5-1, 5-[4-(1-amino-1-methylethyl)phenyl]-1H-indazole dihydrochloride], the affinity corresponds to a Ki of 19 nM.
`CC(C)(N)c1ccc(-c2ccc3[nH]ncc3c2)nc1` [Compound 5-3, 5-[5-(1-Amino-1-methylethyl)pyridin-2-yl]-1H-indazole trihydrochloride] displayed a Ki of 20 nM.
For the molecule `CC(C)(N)c1ccc(-c2ccc3[nH]ncc3c2[N+](=O)[O-])cc1` [Compound 5-4, 5-[4-(1-Amino-1-methylethyl)phenyl]-4-nitro-1H-indazole monohydrochloride], affinity was put at a Ki of 28 nM.
Molecule `CC(C)(N)c1ccc(-c2ccc3[nH]ncc3c2N)cc1` [Compound 5-5, 4-Amino-5-[4-(1-amino-1-methylethyl)phenyl]-1H-indazole trihydrochloride] came in with a Ki of 44 nM.
The value for `CC(C)(N)c1ccc(-c2ccc3[nH]ncc3c2NCc2ccccc2)cc1` [Compound 5-6, 5-[4-(1-Amino-1-methylethyl)phenyl]-4-benzylamino-1H-indazole dihydrochloride] was 260 nM; that for `CNc1c(-c2ccc(C(C)(C)N)cc2)ccc2[nH]ncc12` [Compound 5-7, 5-[4-(1-Amino-1-methylethyl)phenyl]-4-methylamino-1H-indazole trihydrochloride] was 15 nM.
Molecule `COC(=O)c1n[nH]c2ccc(-c3ccc(C(C)(C)N)cc3)cc12` [Compound 5-8, 5-[4-(1-Amino-1-methylethyl)phenyl]-3-methoxy-carbonyl-1H-indazole dihydrochloride] came in with a Ki of 97 nM.
For `CC(C)(N)c1ccc(-c2ccc3[nH]nc(C(N)=O)c3c2)cc1` [Compound 5-10, 3-Aminocarbonyl-5-[4-(1-amino-1-methylethyl)phenyl]-1H-indazole monohydrochloride], the Ki amounted to 134 nM.
For the molecule `CC(C)(N)c1ccc(-c2ccc3[nH]nc(N)c3c2)cc1` [Compound 5-11, 3-Amino-5-[4-(1-amino-1-methylethyl)phenyl]-1H-indazole trihydrochloride], the Ki came to 144 nM.
With `CC(C)(N)c1ccc(-c2ccc3[nH]nc(C=NO)c3c2)cc1` [Compound 5-12, 5-[4-(1-Amino-1-methylethyl)phenyl]-3-hydroxyimino-methyl-1H-indazole monohydrochloride] the figure was 7.5 nM; with `CC(C)(N)c1ccc(-c2ccc3[nH]nc(C#N)c3c2)cc1` [Compound 5-13, 5-[4-(1-Amino-1-methylethyl)phenyl]-3-cyano-1H-indazole dihydrochloride], 103 nM.
With `CC(C)(N)c1ccc(-c2ccc3[nH]nc(CO)c3c2)cc1` [Compound 5-14, 5-[4-(1-Amino-1-methylethyl)phenyl]-3-hydroxymethyl-1H-indazole dihydrochloride] the figure was 142 nM; with `C=C(C)c1n[nH]c2ccc(-c3ccc(C(C)(C)N)cc3)cc12` [Compound 5-15, 5-[4-(1-Amino-1-methylethyl)phenyl]-3-(1-methyl-vinyl)-1H-indazole monotrifluoroacetate], 56 nM.
In turn, `CN(C)c1c(-c2ccc(C(C)(C)N)cc2)ccc2[nH]ncc12` [Compound 5-16, 5-[4-(1-Amino-1-methylethyl)phenyl]-4-dimethylamino-1H-indazole trihydrochloride] yielded a Ki of 16 nM.
With `CC(C)(N)c1ccc(-c2ccc3[nH]ncc3c2[N+](=O)[O-])nc1` [Compound 5-17, 5-[5-(1-Amino-1-methylethyl)pyridin-2-yl]-4-nitro-1H-indazole dihydrochloride] the figure was 199 nM.
With `NCc1ccc(-c2ccc3[nH]ncc3c2[N+](=O)[O-])cc1` [Compound 5-19, 5-[4-(Aminomethyl)phenyl]-4-nitro-1H-indazole dihydrochloride] the figure was 55 nM.
Turning to `NCc1ccc(-c2ccc3[nH]ncc3c2N)cc1` [Compound 5-20, 4-Amino-5-[4-(aminomethyl)phenyl]-1H-indazole trihydrochloride], the affinity corresponds to a Ki of 61 nM.
For `Nc1c(-c2ccc(C3(N)CCCC3)cc2)ccc2[nH]ncc12` [Compound 5-21, 4-Amino-5-[4-(1-aminocyclopentyl)phenyl]-1H-indazole dihydrochloride], the Ki came out at 26 nM.
With `CCC(N)(CC)c1ccc(-c2ccc3[nH]ncc3c2N)cc1` [Compound 5-22, 4-Araino-5-[4-(1-amino-1-ethylpropyl)phenyl]-1H-indazole trihydrochloride] the figure was 38 nM.
With `CN(C)c1c(-c2ccc(CN)cc2)ccc2[nH]ncc12` [Compound 5-23, 5-[4-(Aminomethyl)phenyl]-4-dimethylamino-1H-indazole trihydrochloride] the figure was 29 nM; with `CN(C)c1c(-c2ccc(C3(N)CCCC3)cc2)ccc2[nH]ncc12` [Compound 5-24, 5-[4-(1-Aminocyclopentyl)phenyl]-4-dimethylamino-1H-indazole trihydrochloride], 14 nM; with `CCC(N)(CC)c1ccc(-c2ccc3[nH]ncc3c2N(C)C)cc1` [Compound 5-25, 5-[4-(1-Amino-1-ethylpropyl)phenyl]-4-dimethylamino-1H-indazole trihydrochloride], 23 nM.
`CC(N)c1ccc(-c2ccc3[nH]ncc3c2N(C)C)cc1` (stereo not shown) [Compound 5-26, 5-[4-(1-Aminoethyl)phenyl]-4-dimethylamino-1H-indazole trihydrochloride] returned a Ki of 27 nM.
`CC(C)(N)c1cnc(-c2ccc3[nH]ncc3c2)c(Cl)c1` [Compound 5-27, 5-[5-(1-Amino-1-methylethyl)-3-chloropyridin-2-yl]-1H-indazole trihydrochloride]: the Ki was 86 nM.
With `CCc1c(-c2ccc(C(C)(C)N)cn2)ccc2[nH]ncc12` [Compound 5-28, 5-[5-(1-Amino-1-methylethyl)pyridin-2-yl]-4-ethyl-1H-indazole trihydrochloride] the figure was 15 nM; with `CC(C)(N)c1ccc(-c2ccc3[nH]ncc3c2C2CC2)nc1` [Compound 5-29, 5-[5-(1-Amino-1-methylethyl)pyridin-2-yl]-4-cyclo-propyl-1H-indazole trihydrochloride], 2.7 nM.
With `C=Cc1c(-c2ccc(C(C)(C)N)cn2)ccc2[nH]ncc12` [Compound 5-30, 5-[5-(1-Amino-1-methylethyl)pyridin-2-yl]-4-vinyl-1H-indazole trihydrochloride], the affinity corresponds to a Ki of 17 nM.
Regarding `CCN(CC)c1c(-c2ccc(C(C)(C)N)cc2)ccc2[nH]ncc12` [Compound 5-31, 5-[4-(1-Amino-1-methylethyl)phenyl]-4-diethylamino-1H-indazole trihydrochloride], the Ki stood at 614 nM.
The value for `CC(C)(N)c1ccc(-c2ccc3[nH]ncc3c2CCO)cc1` [Compound 5-32, 5-[4-(1-Amino-1-methylethyl)phenyl]-4-(2-hydroxy-ethyl)-1H-indazole dihydrochloride] was 47 nM.
The molecule `CC(C)(N)c1ccc(-c2ccc3[nH]ncc3c2CCO)nc1` [Compound 5-33, 5-[5-(1-Amino-1-methylethyl)pyridin-2-yl]-4-(2-hydroxyethyl)-1H-indazole trihydrochloride] displayed a Ki of 234 nM.
`CC(O)c1c(-c2ccc(C(C)(C)N)cc2)ccc2[nH]ncc12` (stereo not shown) [Compound 5-34, 5-[4-(1-Amino-1-methylethyl)phenyl]-4-(1-hydroxy-ethyl)-1H-indazole dihydrochloride] yielded a Ki of 294 nM.

The values above are taken from patent publication US8232308B2, “Methods for treating a disease in which Rho kinase is involved” (UBE Industries, Ltd., priority 2003, dated 2012).
